{"source": "patent US20100016366A1", "about": "“Novel Compounds Active as Muscarinic Receptor Antagonists” (priority 2008, published 2010)"}
{"molecular_target": "T1, human muscarinic M3 receptor (Homo sapiens, UniProt P20309)", "T1 construct": "expressed in transfected cells; host or cells: CHO (CHO-K1) cells", "T1 sequence (P20309 whole entry)": "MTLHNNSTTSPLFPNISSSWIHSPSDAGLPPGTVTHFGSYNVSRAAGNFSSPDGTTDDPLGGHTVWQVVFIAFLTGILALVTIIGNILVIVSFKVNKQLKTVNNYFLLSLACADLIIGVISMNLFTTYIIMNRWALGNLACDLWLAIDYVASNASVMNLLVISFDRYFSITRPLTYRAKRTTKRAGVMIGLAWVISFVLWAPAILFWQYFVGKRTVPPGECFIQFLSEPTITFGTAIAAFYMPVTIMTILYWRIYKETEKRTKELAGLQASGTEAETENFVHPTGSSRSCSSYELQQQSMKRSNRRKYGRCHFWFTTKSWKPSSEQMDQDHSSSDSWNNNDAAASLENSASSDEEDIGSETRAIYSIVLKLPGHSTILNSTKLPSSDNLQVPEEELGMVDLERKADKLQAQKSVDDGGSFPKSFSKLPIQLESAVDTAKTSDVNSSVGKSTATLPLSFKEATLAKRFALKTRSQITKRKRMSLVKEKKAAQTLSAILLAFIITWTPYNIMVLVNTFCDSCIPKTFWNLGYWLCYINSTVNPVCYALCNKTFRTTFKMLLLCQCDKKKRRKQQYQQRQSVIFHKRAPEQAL", "assay": "hM3 competition binding assay (3H-NMS, CHO cell membranes)", "conditions": "CHO cell membranes expressing human M3; 3H-NMS at 5×KD, 24 hr at RT; IC50 corrected by Cheng-Prussoff", "method": "Binding Affinity Assessment at the Human Recombinant M3 Muscarinic Receptor\nCell Pellets from CHO (Chinese Hamster Ovary) cells recombinantly expressing the human muscarinic M3 receptor were homogenised in 20 mM HEPES (pH7.4) and centrifuged at 48000×g for 20 min at 4° C. The pellet was re-suspended in buffer and the homogenisation and centrifugation steps repeated. The resulting pellet was re-suspended in 1 ml buffer per 1 ml original packed cell volume and the homogenisation step repeated. Protein estimation was carried out on the suspension and 1 ml aliquots of ˜1 mg/ml frozen at −80° C.\nhM3 Competition Binding Assay Protocol\nMembranes (5 µg/well) were incubated with ^3H-NMS (at a concentration 5×KD) plus/minus test compound for 24 hr at RT (room temperature) in a 1 ml polystyrene 96-well deep well block. The final assay volume was 200 µl, comprising of: 20 µl plus/minus test compound; 20 µl ^3H-NMS (Perkin Elmer NEN 636) and 160 µl membrane solution. Total Binding was defined with 0.1% DMSO; Non-Specific Binding was defined with 1 µM Atropine. Assay buffer was 20 mM Hepes (pH 7.4).\nOnce all assay components were added, plates were covered and incubated at room temperature for 24 hrs with shaking. The assay was terminated by rapidly filtering through GF/B Unifilter plates pre-soaked with 0.5% polyethylenimine, using a Packard filtermate harvester, the filter plate was then washed with 3×1 ml 4° C. assay buffer. The filter plates were dried at 45° C. for 1 hour. The bottoms of the filter plates were sealed and 50 µl/well of Microscint ‘0’ added, the top of the plates were sealed with a Topseal. Following 90 mins, the plates were read on an NXT Topcount (1 minute read time per well).\nThe resulting data was expressed as a percentage of the specific binding (Specific binding=Total binding−Non-Specific Binding). % specific binding versus test compound concentration was plotted to determine an IC50 from a sigmoid curve using an in-house data analysis programme. IC50 values corrected to Ki values by applying the Cheng-Prussoff equation: […]\nwhere IC50 is the concentration of unlabelled drug which inhibits by 50% the specific radioligand binding. [L] is the free radioligand concentrations and KD and Ki are the equilibrium dissociation constants of the radioligand and unlabelled drug respectively.", "units": {"Ki": "nM"}}
{"molecule": "CN(CCCCCCCCCN1CCC(OC(=O)Nc2ccccc2-c2ccccc2)CC1)Cc1cccc(F)c1O", "note": "[Example 40, Biphenyl-2-yl-carbamic acid 1-{9-[(3-fluoro-2-hydroxy-benzyl)-methyl-amino]-nonyl}-piperidin-4-yl ester]", "Ki": 0.638}
{"molecule": "CN(CCCCCCCCCN1CCC(OC(=O)Nc2ccccc2-c2ccccc2)CC1)C(=O)c1ccc(Cl)c(O)c1", "note": "[Example 62, Biphenyl-2-yl-carbamic acid 1-{9-[(4-chloro-3-hydroxy-benzoyl)-methyl-amino]-nonyl}-piperidin-4-yl ester]", "Ki": 1.21}
{"molecule": "O=C(Nc1ccccc1-c1ccccc1)OC1CCN(CCCCCCCCCN(Cc2cccc(O)c2Cl)Cc2cccc(O)c2Cl)CC1", "note": "[Example 39, Biphenyl-2-yl-carbamic acid 1-{9-[bis-(2-chloro-3-hydroxy-benzyl)-amino]-nonyl}-piperidin-4-yl ester]", "Ki": 1.13}
{"molecule": "CN(CCCCCCCCCN1CCC(OC(=O)Nc2ccccc2-c2ccccc2)CC1)C(=O)c1ccc(O)cc1Cl", "note": "[Example 65, Biphenyl-2-yl-carbamic acid 1-{9-[(2-chloro-4-hydroxy-benzoyl)-methyl-amino]-nonyl}-piperidin-4-yl ester]", "Ki": 0.628}
{"molecule": "CN(CCCCCCCCCN1CCC(OC(=O)Nc2ccccc2-c2ccccc2)CC1)Cc1cc(Cl)c(Cl)cc1O", "note": "[Example 41, Biphenyl-2-yl-carbamic acid 1-{9-[(4,5-dichloro-2-hydroxy-benzyl)-methyl-amino]-nonyl}-piperidin-4-yl ester]", "Ki": 1.3}
{"molecule": "CN(CCCCCCCCCN1CCC(OC(=O)Nc2ccccc2-c2ccccc2)CC1)Cc1cc(F)c(Cl)cc1O", "note": "[Example 43, Biphenyl-2-yl-carbamic acid 1-{9-[(4-chloro-5-fluoro-2-hydroxy-benzyl)-methyl-amino]-nonyl}-piperidin-4-yl ester]", "Ki": 0.295}
{"molecule": "CN(CCCCCCCCCN1CCC(OC(=O)Nc2ccccc2-c2ccccc2)CC1)Cc1ccc(Cl)c(O)c1Cl", "note": "[Example 54, Biphenyl-2-yl-carbamic acid 1-{9-[(2,4-dichloro-3-hydroxy-benzyl)-methyl-amino]-nonyl}-piperidin-4-yl ester]", "Ki": 0.233}
{"molecule": "CN(CCCCCCCCCN1CCC(OC(=O)Nc2ccccc2-c2ccccc2)CC1)Cc1ccc(O)c(F)c1", "note": "[Example 45, Biphenyl-2-yl-carbamic acid 1-{9-[(3-fluoro-4-hydroxy-benzyl)-methyl-amino]-nonyl}-piperidin-4-yl ester]", "Ki": 0.212}
{"molecule": "CN(CCCCCCCCCN1CCC(OC(=O)Nc2ccccc2-c2ccccc2)CC1)Cc1cccc(O)c1Cl", "note": "[Example 48, Biphenyl-2-yl-carbamic acid 1-{9-[(2-chloro-3-hydroxy-benzyl)-methyl-amino]-nonyl}-piperidin-4-yl ester]", "Ki": 0.182}
{"molecule": "CN(CCCCCCCCCN1CCC(OC(=O)Nc2ccccc2-c2ccccc2)CC1)Cc1cc(F)c(O)c(F)c1", "note": "[Example 53, Biphenyl-2-yl-carbamic acid 1-{9-[(3,5-difluoro-4-hydroxy-benzyl)-methyl-amino]-nonyl}-piperidin-4-yl ester]", "Ki": 0.345}
{"molecule": "CN(CCCCCCCCCN1CCC(OC(=O)Nc2ccccc2-c2ccccc2)CC1)C(=O)Cc1cccc(O)c1", "note": "[Example 66, Biphenyl-2-yl-carbamic acid 1-(9-{[2-(3-hydroxy-phenyl)-acetyl]-methyl-amino}-nonyl)-piperidin-4-yl ester]", "Ki": 0.292}
{"molecule": "CN(CCCCCCCCCN1CCC(OC(=O)Nc2ccccc2-c2ccccc2)CC1)C(=O)c1ccc(F)cc1O", "note": "[Example 61, Biphenyl-2-yl-carbamic acid 1-{9-[(4-fluoro-2-hydroxy-benzoyl)-methyl-amino]-nonyl}-piperidin-4-yl ester]", "Ki": 0.778}
{"molecule": "CN(CCCCCCCCCN1CCC(OC(=O)Nc2ccccc2-c2ccccc2)CC1)Cc1cc(Cl)ccc1O", "note": "[Example 46, Biphenyl-2-yl-carbamic acid 1-{9-[(5-chloro-2-hydroxy-benzyl)-methyl-amino]-nonyl}-piperidin-4-yl ester]", "Ki": 0.755}
{"molecule": "CN(CCCCCCCCCN1CCC(OC(=O)Nc2ccccc2-c2ccccc2)CC1)Cc1cc(F)cc(F)c1O", "note": "[Example 55, Biphenyl-2-yl-carbamic acid 1-{9-[(3,5-difluoro-2-hydroxy-benzyl)-methyl-amino]-nonyl}-piperidin-4-yl ester]", "Ki": 0.417}
{"molecule": "CN(CCCCCCCCCN1CCC(OC(=O)Nc2ccccc2-c2ccccc2)CC1)C(=O)c1ccc(F)c(F)c1O", "note": "[Example 58, Biphenyl-2-yl-carbamic acid 1-{9-[(3,4-difluoro-2-hydroxy-benzoyl)-methyl-amino]-nonyl}-piperidin-4-yl ester]", "Ki": 1.83}
{"molecule": "CN(CCCCCCCCCN1CCC(OC(=O)Nc2ccccc2-c2ccccc2)CC1)C(=O)c1cccc(F)c1O", "note": "[Example 59, Biphenyl-2-yl-carbamic acid 1-{9-[(3-fluoro-2-hydroxy-benzoyl)-methyl-amino]-nonyl}-piperidin-4-yl ester]", "Ki": 1.27}
{"molecule": "CN(CCCCCCCCCN1CCC(OC(=O)Nc2ccccc2-c2ccccc2)CC1)C(=O)c1cccc(Cl)c1O", "note": "[Example 57, Biphenyl-2-yl-carbamic acid 1-{9-[(3-chloro-2-hydroxy-benzoyl)-methyl-amino]-nonyl}-piperidin-4-yl ester]", "Ki": 0.87}
{"molecule": "CN(CCCCCCCCCN1CCC(OC(=O)Nc2ccccc2-c2ccccc2)CC1)Cc1cc(F)cc(Cl)c1O", "note": "[Example 49, Biphenyl-2-yl-carbamic acid 1-{9-[(3-chloro-5-fluoro-2-hydroxy-benzyl)-methyl-amino]-nonyl}-piperidin-4-yl ester]", "Ki": 0.285}
{"molecule": "CN(CCCCCCCCCN1CCC(OC(=O)Nc2ccccc2-c2ccccc2)CC1)C(=O)c1ccc(O)c(F)c1", "note": "[Example 69, Biphenyl-2-yl-carbamic acid 1-{9-[(3-fluoro-4-hydroxy-benzoyl)-methyl-amino]-nonyl}-piperidin-4-yl ester]", "Ki": 0.615}
{"molecule": "CN(CCCCCCCCCN1CCC(OC(=O)Nc2ccccc2-c2ccccc2)CC1)Cc1cccc(O)c1F", "note": "[Example 51, Biphenyl-2-yl-carbamic acid 1-{9-[(2-fluoro-3-hydroxy-benzyl)-methyl-amino]-nonyl}-piperidin-4-yl ester]", "Ki": 0.231}
{"molecule": "CN(CCCCCCCCCN1CCC(OC(=O)Nc2ccccc2-c2ccccc2)CC1)C(=O)c1ccc(O)cc1F", "note": "[Example 63, Biphenyl-2-yl-carbamic acid 1-{9-[(2-fluoro-4-hydroxy-benzoyl)-methyl-amino]-nonyl}-piperidin-4-yl ester]", "Ki": 1.12}
{"molecule": "CN(CCCCCCCCCN1CCC(OC(=O)Nc2ccccc2-c2ccccc2)CC1)Cc1ccc(F)c(O)c1", "note": "[Example 42, Biphenyl-2-yl-carbamic acid 1-{9-[(4-fluoro-3-hydroxy-benzyl)-methyl-amino]-nonyl}-piperidin-4-yl ester]", "Ki": 0.233}
{"molecule": "CN(CCCCCCCCCN1CCC(OC(=O)Nc2ccccc2-c2ccccc2)CC1)C(=O)c1cc(Cl)ccc1O", "note": "[Example 68, Biphenyl-2-yl-carbamic acid 1-{9-[(5-chloro-2-hydroxy-benzoyl)-methyl-amino]-nonyl}-piperidin-4-yl ester]", "Ki": 2.27}
{"molecule": "CN(CCCCCCCCCN1CCC(OC(=O)Nc2ccccc2-c2ccccc2)CC1)C(=O)c1cc(F)ccc1O", "note": "[Example 67, Biphenyl-2-yl-carbamic acid 1-{9-[(5-fluoro-2-hydroxy-benzoyl)-methyl-amino]-nonyl}-piperidin-4-yl ester]", "Ki": 0.828}
{"molecule": "CN(CCCCCCCCCN1CCC(OC(=O)Nc2ccccc2-c2ccccc2)CC1)C(=O)c1cc(Cl)cc(Cl)c1O", "note": "[Example 56, Biphenyl-2-yl-carbamic acid 1-{9-[(3,5-dichloro-2-hydroxy-benzoyl)-methyl-amino]-nonyl}-piperidin-4-yl ester]", "Ki": 11.3}
{"molecule": "CN(CCCCCCCCCN1CCC(OC(=O)Nc2ccccc2-c2ccccc2)CC1)C(=O)c1ccc(Cl)cc1O", "note": "[Example 60, Biphenyl-2-yl-carbamic acid 1-{9-[(4-chloro-2-hydroxy-benzoyl)-methyl-amino]-nonyl}-piperidin-4-yl ester]", "Ki": 3.61}
{"molecule": "CN(CCCCCCCCCN1CCC(OC(=O)Nc2ccccc2-c2ccccc2)CC1)Cc1cc(Cl)cc(Cl)c1O", "note": "[Example 52, Biphenyl-2-yl-carbamic acid 1-{9-[(3,5-dichloro-2-hydroxy-benzyl)-methyl-amino]-nonyl}-piperidin-4-yl ester]", "Ki": 0.637}
{"molecule": "CN(CCCCCCCCCN1CCC(OC(=O)Nc2ccccc2-c2ccccc2)CC1)C(=O)c1ccc(O)c(F)c1F", "note": "[Example 64, Biphenyl-2-yl-carbamic acid 1-{9-[(2,3-difluoro-4-hydroxy-benzoyl)-methyl-amino]-nonyl}-piperidin-4-yl ester]", "Ki": 2}
